Experimental data from patent US5268361A, “Hydroxyazido derivatives and related compounds as renin inhibitors” (SRI International, priority 1991, dated 1993).

Columns and labels:
[1] = animals; from cited publications; cited from earlier work
[2] = target: T1, human kidney renin (Homo sapiens, UniProt P00797); assay: Human renin enzyme assay with angiotensin I radioimmunoassay; assay type: biochemical; details: angiotensinogen substrate, pH 6.0 maleate buffer, 37° C., 50% reduction in the release of angiotensin I
T1 construct: 0.24 mGU human kidney renin; from tissue; host or cells: human kidney
T1 sequence (P00797 67-406): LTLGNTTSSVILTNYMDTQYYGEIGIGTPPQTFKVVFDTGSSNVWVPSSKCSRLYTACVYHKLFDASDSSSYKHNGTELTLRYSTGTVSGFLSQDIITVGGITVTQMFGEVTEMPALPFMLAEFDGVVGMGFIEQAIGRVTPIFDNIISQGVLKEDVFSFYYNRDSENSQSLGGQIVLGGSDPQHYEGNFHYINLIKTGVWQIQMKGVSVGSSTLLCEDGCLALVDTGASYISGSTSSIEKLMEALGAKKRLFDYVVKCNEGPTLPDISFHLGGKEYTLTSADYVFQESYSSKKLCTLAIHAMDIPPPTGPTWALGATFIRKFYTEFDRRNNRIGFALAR
Protocol: a. Human Renin Enzyme Assay. The human renin enzyme assay described by Sham et al., J. Med. Chem. 31:284-295 (1988) was carried out by mixing 0.24 mGU human kidney renin, 0.21 αμM of angiotensinogen in 0.135 M, pH 6.0, maleate buffer containing 3 mM EDTA, 1.4 mM PMSF, and 0.44% BSA. The total assay volume was 100 μl. All inhibitors were dissolved in DMSO first and diluted with 0.5% BSA to give the appropriate concentrations for testing. The final DMSO concentration in the assay mixture was kept constant at 1%. […] For assay, 90 μl of the above-mentioned maleate buffer containing the renin and inhibitor was preincubated at 37° C. for 5 min and the reaction was continued for 10 additional min after adding 10 μl of substrate. The reaction was stopped by immersion of all tubes in a dry ice acetone-methanol bath. All samples were thawed to 0.4° C. and an aliquot from each tube was taken for the Angiotensin I RIA assay.
b. Angiotensin I Radioimmunoassay. A 100 μl portions of 5% BSA containing a small aliquot of the above enzyme mixture was mixed with 100 μl of angiotensin I [^125 I] (500 mCi/mg) in 0.1M Tris-acetate buffer, pH 7.4 (one part angiotensin I in 50 parts buffer), and 500 μl of antiserum (the lyophilized powder was reconstituted with 125 ml of 0.1M Tris-acetate buffer, pH 7.4). The mixture was incubated at 4° C. for 18 to 24 h. At the end of the incubation, 1.0 mL of charcoal suspension (600 mg of charcoal in 50 mL of 0.1M Tris-acetate buffer, pH 7.4) was pipetted into each tube. The charcoal suspension was stirred constantly during the transfer. The samples were mixed and then centrifuged at 3000×g for 15 min. The supernatants were transferred into properly numbered tubed for gamma counting.
A reagent blank was carried out with each assay. The blank tube contained 100 μl of 5% bovine serum albumin (BSA), 100 μl of angiotensin I [^125 I], and 500 μl of 0.1M Tris-acetate buffer.
A standard curve was prepared with each set of experiments by mixing various amounts (5 to 0.1 ng/ml) of angiotensin I in 0.1M Tris-acetate buffer containing 5% BSA and the same amounts of ^125 I-angiotensin I and antiserum as for the RIA assay. The tubes containing the standards were treated exactly like those containing the samples. The amount of angiotensin I produced by the enzyme in each sample was calculated using an angiotensin I standard curve.
The whole process of RIA was carried out at 0° to 4° C. to avoid deterioration of antiserum and angiotensin I. Only polystyrene tubes were used. Polystyrene tubes had shown no affinity for antibody under the assay conditions described above.
An IC50 was calculated for each inhibitor tested by conducting the assay in the presence of different concentrations of inhibitor. The inhibitor concentration that caused a 50% reduction in the release of angiotensin I when compared to control (no inhibitor) values was then calculated.

[3] = tested on: Cynomolgus monkeys; assay: In vivo efficacy: oral administration to Cynomolgus monkeys, blood pressure monitoring; details: salt-depleted, furosemide-pretreated male Cynomolgus monkeys; oral gavage 1.0 mg/kg
Protocol: b. In vivo efficacy: Oral activity of a number of the compounds of the invention was established by administration to Cynomolgus monkeys, a species known to be susceptible to the antihypertensive effect of renin inhibition. Two male monkeys, young adults approximately 3-6 kg at dosing, were tested over a six-week period. The animal room environment and photoperiod were controlled (temperature approximately 24° C., humidity 50±20%, 12 h light, 12 h dark), as was diet (low salt primate chow, plus discretionary supplements of fruit for at least 7 days prior to dosing). A diuretic (furosemide 1 mg/kg) was given daily by intravenous injection for 7 days prior to dosing.
The compounds of the invention were dissolved in 0.02 N HCl and prepared to the appropriate volume with sterile water. The pH of the solutions were adjusted to approximately 4.0 with 0.02 N NaOH. The solutions were then given orally by an oesophageal gavage at a dose level of 1.0 mg/kg, and a dose volume of 2 mL/kg body weight.
Prior to and following dosing, the animals were connected to an ECG and blood pressure monitor. Systolic, diastolic and mean blood pressure as well as heart rate were measured at 30 second intervals and recorded.

Row | IC50 [2] | Structure (SMILES) | Oral activity [1] | Reduction in blood pressure [3]
1 |  | COc1ccc(C[C@H](NC(=O)CC(C)(C)N)C(=O)N[C@@H](Cc2cnc[nH]2)C(=O)N[C@@H](CC2CCCCC2)[C@@H](O)[C@@H](O)CC(C)C)cc1 [Compound A-64662] | orally active in animals | 
2 | 190 nM | CC(C)CC(N=[N+]=[N-])C(O)[C@H](CC(C)C)NC(=O)[C@H](Cc1c[nH]cn1)NC(=O)[C@H](Cc1cccc2ccccc12)NC(=O)OCc1ccccc1 (stereo partly drawn) [Compound I-5b, 4-Azido-6-(S)-[N^α -[N-benzyloxycarbonyl-3-(1-naphthyl)-L-alanyl]-L-histidyl]-amino-2,8-dimethyl-5-nonanol] |  | 
3 | 0.58 nM | CC(C)C[C@H](N=[N+]=[N-])[C@H](O)[C@H](CC1CCCCC1)NC(=O)[C@H](Cc1c[nH]cn1)NC(=O)[C@H](Cc1ccccc1)NC(=O)N1CCOCC1 [Compound V-4, (4S, 5R, 6S)-4-Azido-7-cyclohexyl-5-hydroxy-2-methyl-6-[N^α -(N-(morpholino-N-carbonyl)L-phenylalanyl)-L-histidyl]aminoheptane] |  | 
4 | 0.006 nM | CC(C)C[C@H](N=[N+]=[N-])[C@H](O)[C@H](CC1CCCCC1)NC(=O)[C@H](Cc1c[nH]cn1)NC(=O)[C@H](Cc1ccccc1)CS(=O)(=O)C(C)(C)C [Compound X-2b, (4S, 5R, 6S)-4-Azido-7-cyclohexyl-5-hydroxy-2-methyl-6-[N^α -[(S)-2-benzyl-3-(tert-butylsulfonyl)-pripionyl]-L-histidyl]aminoheptane] |  | Reduction in blood pressure was seen within approximately 1 to 6 hours
5 | 110 nM | CC(C)C[C@H](N=[N+]=[N-])[C@H](O)[C@H](CC(C)C)NC(=O)[C@H](Cc1c[nH]cn1)NC(=O)[C@H](Cc1ccccc1)OC(=O)N1CCOCC1 [III-6, (4S, 5R, 6S)-4-Azido-5-hydroxy-2,8-dimethyl-6-[N^α -(2S-(morpholino-N-carbonyloxy)-3-phenylpropionyl)-L-histidyl]aminononane] |  | 
6 | 1.7 nM | CC(C)C[C@H](N=[N+]=[N-])[C@H](O)[C@H](CC1CCCCC1)NC(=O)[C@H](Cc1c[nH]cn1)NC(=O)[C@H](Cc1ccccc1)OC(=O)N1CCOCC1 [IV-7, (4S, 5R, 6S)-4-Azido-7-cyclohexyl-5-hydroxy-2-methyl-6-[N^α -(2S-(morpholino-N-carbonyloxy)-3-phenylpropionyl)-L-histidyl]aminoheptane] |  | Reduction in blood pressure was seen within approximately 1 to 6 hours
7 | 5.4 nM | CC(C)C[C@H](N=[N+]=[N-])[C@H](O)[C@H](CC1CCCCC1)NC(=O)[C@H](Cc1c[nH]cn1)NC(=O)[C@H](Cc1ccccc1)NC(=O)CC(C)(C)N [IX-6] |  | 
8 | 0.64 nM | CC(C)C[C@H](N=[N+]=[N-])[C@H](O)[C@H](CC1CCCCC1)NC(=O)[C@H](Cc1c[nH]cn1)NC(=O)C(CC(=O)N1CCOCC1)Cc1ccccc1 (stereo partly drawn) [VI-6b, (4S, 5R, 6S)-4-Azido-6-[N^α -(2-benzyl-3-(morpholino-N-carbonyl)propionyl)-L-histidyl]amino-7-cyclohexyl-5-hydroxy-2-methylheptane] |  | 
9 | 5.1 nM | CC(C)CC(N=[N+]=[N-])C(=O)C(CC1CCCCC1)NC(=O)[C@H](Cc1c[nH]cn1)NC(=O)[C@H](Cc1ccccc1)OC(=O)N1CCOCC1 (stereo partly drawn) [VII-2, 4-Azido-7-cyclohexyl-2-methyl-5-oxo-6-[N^α -(2S-(morpholino-N-carbonyloxy)-3-phenylpropionyl)-L-histidyl]amino heptane] |  | 
10 | 0.85 nM | CC(C)C[C@H](N=[N+]=[N-])[C@H](O)[C@H](CC1CCCCC1)NC(=O)[C@H](Cc1c[nH]cn1)NC(=O)/C(=C/c1ccccc1)CC(=O)N1CCOCC1 [VIII-3, (4S, 5R, 6S)-4-Azido-7-cyclohexyl-5-hydroxy-2-methyl-6-[N^α -[(E)-2-[(4-morphorinylcarbonyl)-methyl]cinnamyl]-L-histidyl]aminoheptane] |  | 
11 | 0.008 nM | COCCOCCN(C)C(=O)C[C@@H](Cc1ccccc1)C(=O)N[C@@H](Cc1c[nH]cn1)C(=O)N[C@@H](CC1CCCCC1)[C@@H](O)[C@H](CC(C)C)N=[N+]=[N-] [XI-2] |  | 
